Results published in ChEMBL document CHEMBL1136693, “Aryl tetrahydropyridine inhibitors of farnesyltransferase: glycine, phenylalanine and histidine derivatives” (Bioorg Med Chem Lett, 2003).
pEC50, pIC50: −log10 of the molar value.

target: Protein farnesyl/geranylgeranyl transferase (Homo sapiens) (UniProt P49354+P49356+P53609); assay: Selectivity for farnesyl over geranylgeranyl transferase; format: protein-complex assay

`CCCCN(CCC1CCCCC1)Cc1ccc(C(=O)N[C@@H](CCSC)C(=O)O)c(-c2ccccc2C)c1` was tested, and the Selectivity was 75000.

target: Geranylgeranyl transferase type I (Homo sapiens, UniProt P49354+P53609); assay: In vitro inhibitory activity against geranylgeranyltransferase-1 (type I); format: protein-complex assay

Compound `Cn1cncc1C[C@@H](NCc1ccc(C#N)cc1)C(=O)N1CCC(C#N)=C(c2cccc3ccccc23)C1` has a pIC50 of 5.46.

target: Protein farnesyltransferase (Mus musculus, UniProt Q61239+Q8K2I1); assay: Inhibition of Ras farnesylation in Human Ha-Ras-transformed BALB/c 3T3 cells; format: functional, cell-based

`Cn1cncc1C[C@@H](NCc1ccc(C#N)cc1)C(=O)N1CCC(C#N)=C(c2cccc3ccccc23)C1` and `CN(Cc1ccc(C#N)cc1)[C@H](Cc1cncn1C)C(=O)N1CCC(C#N)=C(c2cccc3ccccc23)C1` cannot be ordered by pEC50: 6.72 for the first, < 7.00 for the second.

In the case of `CCCCN(CCC1CCCCC1)Cc1ccc(C(=O)N[C@@H](CCSC)C(=O)O)c(-c2ccccc2C)c1`, the pEC50 was 7.80.

target: Protein farnesyltransferase (Homo sapiens, UniProt P49354+P49356); assay: In vitro inhibitory activity against farnesyl transferase; format: protein-complex assay

`CSCC[C@H](NC(=O)C1=C(c2ccccc2C)CN(C(=O)OC(CCC2CCCCC2)c2cncs2)CC1)C(=O)O` (some centres not stated) and `CSCC[C@H](NC(=O)C1=C(c2ccccc2C)CN(C(=O)N(Cc2ccccc2)Cc2cncs2)CC1)C(=O)O` are within 0.2 log units of each other in pIC50: 9.15 for the first, 9.25 for the second.

`Cn1cncc1CN[C@@H](Cc1ccc(C#N)cc1)C(=O)N1CCC(C#N)=C(c2cccc3ccccc23)C1` and `Cn1cncc1CN[C@H](Cc1ccc(C#N)cc1)C(=O)N1CCC(C#N)=C(c2cccc3ccccc23)C1` are within 0.2 log units of each other in pIC50: 6.51 for the first, 6.62 for the second.

Compared with `Cn1cncc1CN(CC(=O)N1CCC(C#N)=C(c2cccc3ccccc23)C1)Cc1ccc(C#N)cc1`, `Cn1cncc1CN(CC(=O)N1CCC(C#N)=C(c2cccc3ccccc23)C1)Cc1ccccc1` is 0.30 log units higher in pIC50: 6.25 for the first, 6.55 for the second. The second is the more potent here.

Work on `Cn1cncc1C[C@H](NCc1ccc(C#N)cc1)C(=O)N1CCC(C#N)=C(c2cccc3ccccc23)C1` yielded a pIC50 of 6.89.
